Laboratory results from PubChem BioAssay AID1259411 (Chemical Carcinogenesis Research Information System (CCRIS), 2018).
The source made the active and inactive calls. No rule for the calls is given here.

Test system: rodent carcinogenicity bioassays, tumor incidence
Test: CCRIS carcinogenicity studies
Method in brief: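 Archive of carcinogenicity, mutagenicity, tumor promotion and tumor inhibition results drawn from journals, NCI reports and other sources, expert-reviewed; covers 1985-2011 and is no longer updated.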

NC(=O)/C(=C\c1ccc([N+](=O)[O-])o1)c1ccco1
carcinogen call (Species: HAMSTER, Strain/Sex: SYRIAN/MALE, Route: ORAL, Dose: 0.25% IN DIET, Tumor Site: Type of Lesion: FORESTOMACH: PAPILLOMA, SQUAMOUS CELL CARCINOMA, BILE DUCT: ADENOMA): active; positive
carcinogen call (Species: MOUSE, Strain/Sex: CD-1/MALE,FEMALE, Route: ORAL, Dose: 0.4% IN DIET FOR 18 MO, Tumor Site: Type of Lesion: FORESTOMACH: PAPILLOMA, SQUAMOUS CELL CARCINOMA): active; positive
carcinogen call (Species: MOUSE, Strain/Sex: DDY/MALE, Route: ORAL, Dose: 0.25% IN DIET FOR 308 DAYS, Tumor Site: Type of Lesion: FORESTOMACH: SQUAMOUS CELL CARCINOMA): active; positive
carcinogen call (Species: MOUSE, Strain/Sex: ICR/MALE,FEMALE, Route: ORAL, Dose: 0.08, 0.4% IN DIET FOR 440 DAYS, Tumor Site: Type of Lesion: FORESTOMACH: PAPILLOMA, SQUAMOUS CELL CARCINOMA): active; positive
carcinogen call (Species: RAT, Strain/Sex: WISTAR/FEMALE, Route: ORAL, Dose: 0.08, 0.4% IN DIET FOR 18 MO, Tumor Site: Type of Lesion: MAMMARY GLAND: ADENOCARCINOMA, FORESTOMACH: PAPILLOMA): active; positive
carcinogen call (Species: RAT, Strain/Sex: WISTAR/MALE, Route: ORAL, Dose: 0.4% IN DIET FOR 18 MO, Tumor Site: Type of Lesion: FORESTOMACH: PAPILLOMA): active; positive

CCBr
carcinogen call (Species: MOUSE, Strain/Sex: B6C3F1/FEMALE, Route: INHALATION, Dose: 0, 100, 200, 400 PPM 6 HR/D 5 D/WK FOR 103 WK (STUDY DURATION: 105 WK), Dose: 0, 100, 200, 400 PPM 6 HR/D 5 D/WK FOR 103 WK (STUDY DURATION: 105 WK), Tumor Site: Type of Lesion: UTERUS: ADENOMA, ADENOCARCINOMA, ADENOMA OR ADENOCARCINOMA, ADENOCARCINOMA OR SQUAMOUS CELL CARCINOMA): active; positive
carcinogen call (Species: MOUSE, Strain/Sex: B6C3F1/MALE, Route: INHALATION, Dose: 0, 100, 200, 400 PPM 6 HR/D 5 D/WK FOR 104 WK (STUDY DURATION: 106 WK), Dose: 0, 100, 200, 400 PPM 6 HR/D 5 D/WK FOR 104 WK (STUDY DURATION: 106 WK), Tumor Site: Type of Lesion: LUNG: ALVEOLAR/BRONCHIOLAR ADENOMA OR CARCINOMA): equivocal
carcinogen call (Species: RAT, Strain/Sex: F344/FEMALE, Route: INHALATION, Dose: 0, 100, 200, 400 PPM 6 HR/D 5 D/WK FOR 104 WK (STUDY DURATION: 106 WK), Dose: 0, 100, 200, 400 PPM 6 HR/D 5 D/WK FOR 104 WK (STUDY DURATION: 106 WK), Tumor Site: Type of Lesion: BRAIN: GLIOMA, LUNG: ALVEOLAR/BRONCHIOLAR ADENOMA): equivocal
carcinogen call (Species: RAT, Strain/Sex: F344/MALE, Route: INHALATION, Dose: 0, 100, 200, 400 PPM 6 HR/D 5 D/WK FOR 104 WK (STUDY DURATION: 106 WK), Dose: 0, 100, 200, 400 PPM 6 HR/D 5 D/WK FOR 104 WK (STUDY DURATION: 106 WK), Tumor Site: Type of Lesion: ADRENAL MEDULLA: PHEOCHROMOCYTOMA, PHEOCHROMOCYTOMA OR MALIGNANT PHEOCHROMOCYTOMA): active; positive

Cc1c[nH]c(=O)[nH]c1=O
carcinogen call (Species: RAT, Strain/Sex: F344/MALE, Route: ORAL, Dose: 0, 1, 3% IN DIET FOR 36 WK (STUDY DURATION: 40 WK), Dose: 0, 1, 3% IN DIET FOR 36 WK (STUDY DURATION: 40 WK), Tumor Site: Type of Lesion: BLADDER: PAPILLOMA, CARCINOMA): active; positive

O=S(=O)(O)c1ccc(N=Nc2cc(S(=O)(=O)O)c3ccccc3c2O)c2ccccc12
carcinogen call (Species: MOUSE, Strain/Sex: B6C3F1/FEMALE, Route: ORAL, Dose: 0, 3000, 6000 PPM IN DIET, Dose: 0, 3000, 6000 PPM IN DIET): inactive; negative
carcinogen call (Species: MOUSE, Strain/Sex: B6C3F1/MALE, Route: ORAL, Dose: 0, 3000, 6000 PPM IN DIET, Dose: 0, 3000, 6000 PPM IN DIET): inactive; negative
carcinogen call (Species: RAT, Strain/Sex: F344/FEMALE, Route: ORAL, Dose: 0, 12500, 25000 PPM IN DIET, Dose: 0, 12500, 25000 PPM IN DIET): inactive; negative
carcinogen call (Species: RAT, Strain/Sex: F344/MALE, Route: ORAL, Dose: 0, 6000, 12500 PPM IN DIET, Dose: 0, 6000, 12500 PPM IN DIET): inactive; negative
carcinogen call (Species: RAT, Strain/Sex: WISTAR/FEMALE, Route: ORAL, Dose: 0, 100, 400, 1200 MG/KG/D IN BASAL DIET TO PUPS OF PARENTS EXPOSED TO THE SAME DOSE LEVELS FOR 9 WK PRIOR TO MATING AND, Dose: 0, 100, 400, 1200 MG/KG/D IN BASAL DIET TO PUPS OF PARENTS EXPOSED TO THE SAME DOSE LEVELS FOR 9 WK PRIOR TO MATING AND): inactive; negative
carcinogen call (Species: RAT, Strain/Sex: WISTAR/MALE, Route: ORAL, Dose: 0, 100, 400, 1200 MG/KG/D IN BASAL DIET TO PUPS OF PARENTS EXPOSED TO THE SAME DOSE LEVELS FOR 9 WK PRIOR TO MATING AND, Dose: 0, 100, 400, 1200 MG/KG/D IN BASAL DIET TO PUPS OF PARENTS EXPOSED TO THE SAME DOSE LEVELS FOR 9 WK PRIOR TO MATING AND): inactive; negative

Cc1c2ccccc2cc2c1ccc1ccccc12
carcinogen call (Species: MOUSE, Strain/Sex: ALBINO/FEMALE, Route: DERMAL, Dose: 70 UG IN 0.025 ML ACETONE 2/WK FOR 20 WK, Tumor Site: Type of Lesion: INTEGUMENTARY SYSTEM (SKIN): CARCINOMA): active; positive
carcinogen call (Species: MOUSE, Strain/Sex: ALBINO/FEMALE, Route: SUBCUTANEOUS, Dose: 0.1 ML OF 1 MG IN TRICAPRYLIN ONCE, Tumor Site: Type of Lesion: INJECTION SITE: SARCOMA): active; positive
carcinogen call (Species: MOUSE, Strain/Sex: ALBINO/FEMALE, Route: SUBCUTANEOUS, Dose: 0.25, 1.0 MG IN 0.1 ML TRICAPRYLIN ONCE, Tumor Site: Type of Lesion: INJECTION SITE: SARCOMA): active; positive
carcinogen call (Species: MOUSE, Strain/Sex: C57BL/MALE,FEMALE, Route: SUBCUTANEOUS, Dose: 1 MG IN 0.1 ML ARACHIS OIL 1/WK FOR 10 WK, Tumor Site: Type of Lesion: INJECTION SITE): active; positive
carcinogen call (Species: RAT, Strain/Sex: ALBINO/MALE, Route: SUBCUTANEOUS, Dose: 2.0 MG IN 0.25 ML TRICAPRYLIN ONCE, Tumor Site: Type of Lesion: INJECTION SITE: SARCOMA): active; positive
carcinogen call (Species: RAT, Strain/Sex: F344/MALE,FEMALE, Route: SUBCUTANEOUS, Dose: 2 MG IN 0.2 ML PARAFFIN SOLN (TOTAL DOSE 4 MG/RAT), Tumor Site: Type of Lesion: INJECTION SITE: FIBROSARCOMA): active; positive
carcinogen call (Species: RAT, Strain/Sex: HOLTZMAN/MALE, Route: SUBCUTANEOUS, Dose: 0.25 ML OF 2 MG IN TRICAPRYLIN ONCE, Tumor Site: Type of Lesion: INJECTION SITE: SARCOMA): active; positive
carcinogen call (Species: RAT, Strain/Sex: LONG-EVANS/MALE, Route: INTRAMUSCULAR, Dose: 2.5 MG IN 0.5 ML SESAME OIL ONCE, Tumor Site: Type of Lesion: INJECTION SITE: SARCOMA): active; positive
